This passage reports IC50, EC50 and Reduction results from ChEMBL document CHEMBL1132863, “Antioxidant function of phenethyl-5-bromo-pyridyl thiourea compounds with potent anti-HIV activity” (Bioorg Med Chem Lett, 2000).

Experiment [1] has as its target Human immunodeficiency virus type 1 reverse transcriptase (Human immunodeficiency virus 1, UniProt Q72547). Briefly: Inhibition of recombinant HIV-1 reverse transcriptase.
Experiment [2] in a line: Antioxidant activity was evaluated by measuring the inhibition of oxidation of ABTS to ABTS+ by metmyoglobin in the presence of H2O2. The experiment is classed as functional.
The subject of a further experiment is CCRF-CEM. Briefly: The compound was evaluated for percent reduction of H2O2-induced H2DCFDA fluorescence in human CEM T-cells. It is filed as functional. More on the design: concentration or dose not given beside the values.
The next experiment has as its system NALM-6. Briefly: The compound was evaluated for percent reduction of H2O2-induced H2DCFDA fluorescence in NALM-6-B-cells. The experiment is classed as functional, Homo sapiens. Set-up: concentration or dose not given beside the values.

`CS/C(=N\CCc1ccccc1Cl)Nc1ccc(Br)cn1`: the IC50 (in general, the concentration at which inhibition is half-maximal) in experiment [1] was greater than 100000 nM. In addition, in experiment [2], the EC50 – broadly, the midpoint of the concentration-response curve – is greater than 1000 µM.
As to `COc1ccc(CC/N=C(\S)Nc2ccc(Br)cn2)cc1`, the 50% inhibitory concentration (IC50) in experiment [1] is 900 nM. The Reduction in the experiment with CCRF-CEM is listed as 21.4%; with NALM-6 it was 0%. Further, the EC50 in experiment [2] stood at 176 µM.
Turning to `Clc1ccccc1CC/N=C(/Nc1ccc(Br)cn1)SCc1ccccc1`, the 50% inhibitory concentration (IC50) in experiment [1] is greater than 100000 nM. Further, the 50% effective concentration (EC50) in experiment [2] was greater than 1000 µM.
In the case of `COc1cccc(CC/N=C(\S)Nc2ccc(Br)cn2)c1`, the IC50 in experiment [1] was 400 nM. Moreover, the Reduction amounted to 19.7% in the experiment on CCRF-CEM and 30.4% with NALM-6. For the same compound, in experiment [2], the EC50 was 90 µM.
As to `COc1ccc(OC)c(CC/N=C(/Nc2ccc(Br)cn2)SCc2ccccc2)c1`, the 50% inhibitory concentration (IC50) in experiment [1] was greater than 100000 nM. Further, the EC50 in experiment [2] was greater than 1000 µM.
The like results for `Fc1ccccc1CC/N=C(/Nc1ccc(Br)cn1)SCc1ccccc1` were, in that order, greater than 100000 nM and greater than 1000 µM.
For the compound `COc1ccc(OC)c(CCNC(=S)Nc2ccc(Br)cn2)c1`, the Reduction is reported as 29.4% in the experiment on CCRF-CEM and 11.8% with NALM-6. In addition, the EC50 in experiment [2] came to 89 µM.
For `Fc1ccc(CC/N=C(\S)Nc2ccc(Br)cn2)cc1` the same measures were 13%, 2% and 89 µM.
Consider `Fc1ccccc1CC/N=C(\S)Nc1ccc(Br)cn1`, for which the Reduction with CCRF-CEM was 47%. Moreover, in experiment [2], the concentration for a half-maximal effect (EC50) was 109 µM.
In the case of `S=C(NCCc1ccccc1)Nc1ccc(Br)cn1`, the IC50 in experiment [1] turned out to be 1300 nM. Also, the Reduction came to 32.1% in the experiment with CCRF-CEM and 37.1% in the experiment on NALM-6. The concentration giving a half-maximal response (EC50) in experiment [2] was found to be 98 µM.
For `COc1ccccc1CC/N=C(\S)Nc1ccc(Br)cn1` the same measures were 1000 nM, 72.3%, 94.2% and 79 µM.
Compound `Fc1cccc(CC/N=C(\S)Nc2ccc(Br)cn2)c1` gave a Reduction with CCRF-CEM of 45%. Also, the concentration for a half-maximal effect (EC50) in experiment [2] came to 100 µM.
`S=C(NCCc1ccccc1Cl)Nc1ccc(Br)cn1`: the Reduction turned out to be 56.3% in the experiment on CCRF-CEM and 32% in the experiment with NALM-6. The EC50 in experiment [2] is 75 µM.
Turning to `CCCOC(=O)c1cc(O)c(O)c(O)c1` [PROPYL GALLATE], the concentration giving a half-maximal response (EC50) in experiment [2] is 84 µM.
As to `Cc1cn([C@H]2C[C@H](N=[N+]=[N-])[C@@H](CO)O2)c(=O)[nH]c1=O` [ZIDOVUDINE], the IC50 in experiment [1] was greater than 100000 nM. For the same compound, the EC50 in experiment [2] is greater than 1000 µM.
On to VITAMIN E, for which the EC50 in experiment [2] came out at 377 µM.
